Test results from patent US12077501B2, “Compounds and compositions for intracellular delivery of agents” (ModernaTX, Inc., priority 2017, dated 2024).

How the values were obtained:
[1] = pKa of nanoparticle compositions; assay type: physicochemical
[2] = Lipid clearance: % dose remaining in liver of CD-1 mice; assay type: in vivo; conditions: intravenous, 0.5 mg/kg, CD-1 mouse, Table 8a
Description: In contrast, hEPO expression in rats induced by administration of a nanoparticle composition including a compound according to one of formulae (I), (Ia1)-(Ia6), (Ib), (II), (IIa), (III), and (IIIa) was substantially […] than that measured for MC3. […] Tables 7c and 7d show additional protein expressions and clearance data from compositions with various compounds disclosed herein as compared to with MC3. Tables 7e, 7f and 7g show hEPO expression data in CD-1 mice at a dose of 0.5 mpk.

[3] = Lipid purity change after storage in EtOH for 96 h at 25 or 37 °C; assay type: physicochemical
Protocol: Nanoparticle compositions including a therapeutic and/or prophylactic agent can be optimized according to the selection of a compound according to one of formulae (I), (Ia1)-(Ia10), (Ib), (Ic), (Id), (Id1)-(Id10), (Ie), (Ie1)-(Ie6), (II), (IIa), (III), and (IIIa), the selection of additional lipids, the amount of each lipid in the lipid component, and the wt:wt ratio of the lipid component to the therapeutic and/or prophylactic agent, as described herein. Initial studies were performed to compare the delivery efficiency of nanoparticle compositions including various compounds according to one of formulae (I), (Ia1)-(Ia10), (Ib), (Ic), (Id), (Id1)-(Id10), (Ie), (Ie1)-(Ie6), (II), (IIa), (III), and (IIIa). The cationic lipid MC3 is a current standard in the art. Also determined was the stability of nanoparticles of the disclosure, i.e., the purity after storage in EtOH for 96h at 25° C. or 37° C. (Table Id).

[4] = Particle size and polydispersity index of nanoparticle compositions (Zetasizer Nano ZS); assay type: physicochemical; conditions: Table 1c; nanoparticle compositions
Protocol: A Zetasizer Nano ZS (Malvem Instruments Ltd, Malvem, Worcestershire, UK) can be used to determine the particle size, the polydispersity index (PDI) and the zeta potential of the nanoparticle compositions in 1×PBS in determining particle size and 15 mM PBS in determining zeta potential.

[5] = Encapsulation efficiency of RNA (QUANT-IT RIBOGREEN RNA assay); assay type: physicochemical; conditions: Table 1c; nanoparticle compositions
Protocol: For nanoparticle compositions including an RNA, a QUANT-IT™ RIBOGREEN® RNA assay (Invitrogen Corporation Carlsbad, CA) can be used to evaluate the encapsulation of an RNA by the nanoparticle composition. The samples are diluted to a concentration of approximately 5 μg/mL in a TE buffer solution (10 mM Tris-HCl, 1 mM EDTA, pH 7.5). 50 μL of the diluted samples are transferred to a polystyrene 96 well plate and either 50 μL of TE buffer or 50 μL of a 2% Triton X-100 solution is added to the wells. The plate is incubated at a temperature of 37° C. for 15 minutes. The RIBOGREEN® reagent is diluted 1:100 in TE buffer, and 100 μL of this solution is added to each well. The fluorescence intensity can be measured using a fluorescence plate reader (Wallac Victor 1420 Multilablel Counter; Perkin Elmer, Waltham, MA) at an excitation wavelength of, for example, about 480 nm and an emission wavelength of, for example, about 520 nm. The fluorescence values of the reagent blank are subtracted from that of each of the samples and the percentage of free RNA is determined by dividing the fluorescence intensity of the intact sample (without addition of Triton X-100) by the fluorescence value of the disrupted sample (caused by the addition of Triton X-100).

| pKa ([1]; Table 1b) | % Dose Remaining 6 hr [2] [%] | % Dose Remaining 24 hr [2] [%] | Lipid % change purity in EtOH, 25° C., 96 h [3] [%] | Lipid % change purity in EtOH, 37° C., 96 h [3] [%] | pKa ([1]; Table 1c) | PDI [4] | Size (nm) [4] [nm] | EE (%) [5] [%] | SMILES |
| --- | --- | --- | --- | --- | --- | --- | --- | --- | --- |
| 6.74 | 52.40 | 53.65 |  |  |  |  |  |  | CCCCCCCCCN(CCCCCCCCC)CCCC1CCN(C(=O)CCN(CCCCCCCCC)CCN(CCCCCCCCC)CCCCCCCCC)CC1 [Compound 85, 3-((2-(Dinonylamino)ethyl)(nonyl)amino)-1-(4-(3-(dinonylamino)propyl)piperidin-1-yl)propan-1-one] |
| 7.58 | 0.16 | 0.12 | 8.1 | 20.8 |  |  |  |  | CCCCCCCCCN(CCCOC(=O)CCCCC)CCC(=O)N1CCN(C(=O)CCN(CCCCCCCCC)CCN(CCCCCCCCC)CCCCCCCCC)CC1 [Compound 86, 3-((3-(4-(3-((2-(Dinonylamino)ethyl)(nonyl)amino)propanoyl)piperazin-1-yl)-3-oxopropyl)(nonyl)amino)propyl hexanoate] |
| 6.79 | 0.07 | 0.05 |  |  |  |  |  |  | CCCCCCCCCN(CCCOC(=O)CCCCC)CCCC1CCN(C(=O)CCN(CCCCCCCCC)CCN(CCCCCCCCC)CCCCCCCCC)CC1 [Compound 87, 3-((3-(1-(3-((2-(Dinonylamino)ethyl)(nonyl)amino)propanoyl)piperidin-4-yl)propyl)(nonyl)amino)propyl Hexanoate] |
|  |  | 9.10 | 8.46 | 15.47 | 5.17 | 0.24 | 70.3 | 96.9 | CCCCCCCCCN(CCCCCCCCC)CCN(CCCCCCCCC)CCOC(=O)C1CCN(C(=O)CN(CCCCCCCCC)CCCCCCCCC)CC1 [Compound 129, 2-((2-(Dinonylamino)ethyl)(nonyl)amino)ethyl 1-(dinonylglycyl)piperidine-4-carboxylate] |
|  |  | 2.33 | 3.54 | 4.46 | 6.90 | 0.23 | 84.9 | 98.0 | CCCCCCCCCN(CCCCCCCCC)CCN(CCCCCCCCC)CC(=O)N1CCN(C(=O)CN(CCCCCCCCC)CC(C)COC(=O)CCCCC)CC1 (centres unmarked) [Compound 130, 3-((2-(4-(N-(2-(Dinonylamino)ethyl)-N-nonylglycyl)piperazin-1-yl)-2-oxoethyl)(nonyl)amino)-2-methylpropyl hexanoate] |
|  |  | 80.27 | 11.96 | 12.43 | 7.02 | 0.17 | 85.4 | 98.5 | CCCCCCCCCN(CCCCCCCCC)CCN(CCCCCCCCC)CC(=O)N1CCN(C(=O)CN(CCCCCCCCC)CCCOC(=O)CC(C)CCC)CC1 (centres unmarked) [Compound 131, 3-((2-(4-(N-(2-(Dinonylamino)ethyl)-N-nonylglycyl)piperazin-1-yl)-2-oxoethyl)(nonyl)amino)propyl 3-methylhexanoate] |
|  |  | 0.81 | 1.84 | 5.54 | 6.49 | 0.23 | 83.1 | 98.6 | CCCCCCCCCN(CCCCCCCCC)CCN(CCCCCCCCC)CC(=O)N1CCC(CCN(CCCCCCCCC)CC(C)COC(=O)CCCCC)CC1 (centres unmarked) [Compound 132, 3-((2-(1-(N-(2-(Dinonylamino)ethyl)-N-nonylglycyl)piperidin-4-yl)ethyl)(nonyl)amino)-2-methylpropyl hexanoate] |
|  |  | 13.02 |  |  | 6.58 |  |  |  | CCCCCCCCCN(CCCOC(=O)CC(C)CCC)CCC1CCN(C(=O)CN(CCCCCCCCC)CCN(CCCCCCCCC)CCCCCCCCC)CC1 (centres unmarked) [Compound 133, 3-((2-(1-(N-(2-(Dinonylamino)ethyl)-N-nonylglycyl)piperidin-4-yl)ethyl)(nonyl)amino)propyl 3-methylhexanoate] |
|  |  | 33.71 | 1.60 | 11.81 | 6.85 | 0.21 | 82.1 | 96.7 | CCCCCCCCCN(CCCCCCCCC)CCN(CCCCCCCCC)CC(=O)N1CCN(C(=O)CN(CCCCCCCCC)CCCC(=O)SCCCCC)CC1 [Compound 134, S-Pentyl 4-((2-(4-(N-(2-(dinonylamino)ethyl)-N-nonylglycyl)piperazin-1-yl)-2-oxoethyl)(nonyl)amino)butanethioate] |
|  |  | 0.16 | 2.26 | 4.09 | 6.90 | 0.22 | 81.1 | 98.6 | CCCCCCCCCCCCN(CCCOC(=O)CCCCCCC)CC(=O)N1CCN(C(=O)CN(CCCCCCCCC)CCN(CCCCCCCCC)CCCCCCCCC)CC1 [Compound 135, 3-((2-(4-(N-(2-(Dinonylamino)ethyl)-N-nonylglycyl)piperazin-1-yl)-2-oxoethyl)(dodecyl)amino)propyl Octanoate] |
|  |  | 56.18 | −0.71 | 0.77 | 6.13 | 0.23 | 72.1 | 97.7 | CCCCC/C=C\CCN(CC/C=C\CCCCC)CCN(CC/C=C\CCCCC)CC(=O)N1CCN(C(=O)CN(CCCCCCCCC)CCCCCCCCC)CC1 [Compound 136, 2-((2-(Di((Z)-non-3-en-1-yl)amino)ethyl)((Z)-non-3-en-1-yl)amino)-1-(4-(dinonylglycyl)piperazin-1-yl)ethan-1-one] |
|  |  | 0.26 | 0.36 | 1.17 | 6.93 | 0.22 | 78.5 | 98.8 | CCCCCC/C=C\CC(=O)OCCCN(CCCCCCCCCCCCCC)CC(=O)N1CCN(C(=O)CN(CCCCCCCCC)CCN(CCCCCCCCC)CCCCCCCCC)CC1 [Compound 137, 3-((2-(4-(N-(2-(Dinonylamino)ethyl)-N-nonylglycyl)piperazin-1-yl)-2-oxoethyl)(tetradecyl)amino)propyl (Z)-dec-3-enoate] |
|  |  | 0.29 | 0.67 | 1.49 | 6.15 | 0.23 | 83.8 | 94.8 | CCCCC/C=C\CCN(CC/C=C\CCCCC)CCN(CC/C=C\CCCCC)CC(=O)N1CCN(C(=O)CN(CCCCCCCCC)CCCCCCCC(=O)OC)CC1 [Compound 139, Methyl 8-((2-(4-(N-(2-(Di((Z)-non-3-en-1-yl)amino)ethyl)-N—((Z)-non-3-en-1-yl)glycyl)piperazin-1-yl)-2-oxoethyl)(nonyl)amino)octanoate] |
|  |  | 38.63 | 1.10 | 1.80 | 7.26 | 0.21 | 93.7 | 97.4 | CCCCCCCCCCCC(=O)N1CCN(C(=O)CN(CCCCCCCCC)CCN(CCCCCCCCC)CCCCCCCCC)CC1 [Compound 143, 1-(4-(N-(2-(Dinonylamino)ethyl)-N-nonylglycyl)piperazin-1-yl)dodecan-1-one] |
